Read-outs that look alike come from different tables or passages of the source.
Columns and labels:
[1] = Partition coefficient logD (n-octanol/PBS); assay type: physicochemical; conditions: n=6
Protocol: For determination of logarithmic partition coefficients (logD) n-Octanol (500 µL) and PBS (500 µL) were pipetted into eight 1.5 mL Protein Low-Bind Eppendorf tubes followed by addition of 300 kBq of labelled compound. The vials were vortexed for 5 min at 1,500 1/min and then centrifuged for 5 min at 20,000 rcf (Eppendorf Centrifuge 5424). Aliquots of 100 µL were taken out of each phase and the amount of activity was quantified in a γ-counter (Perkin Elmer 2480 Wizard2 3"; Waltham, Massachusetts, USA).

[2] = Biodistribution studies in BALB/c mice; assay type: in vivo; conditions: for tissue uptake at 10 min / tissue uptake at 0.5 h / tissue uptake at 1 h: female, mouse, iv, total radioactivity, healthy BALB/c mice, 0.1 nmol i.v.; for tissue uptake at 10 min: 10 min p.i.; for tissue uptake at 0.5 h: 30 min p.i.; for tissue uptake at 1 h: 60 min p.i.
Protocol: For biodistribution studies 6-week-old female BALB/c mice (n=3) were injected with 0.1 nmol (100 µL, approx. 1 MBq) of labelled compound via the lateral tail vein and sacrificed after 10, 30, or 60 min by cervical dislocation. The mice were dissected, blood and organs (spleen, pancreas, stomach, intestine, liver, kidney, heart, lung, muscle and bone) were weighed and their activity measured in a γ-counter. For blocking experiments, mice were co-injected with 27.7 µmοl N-acetylgalactose.

[3] = Protein binding in human serum (MicroSpin G-50 columns); assay type: in vitro ADME; conditions: fresh human serum, 37 °C, n=3
Protocol: Protein binding was determined for different time points (2 min, 30 min, 60 min, 120 min) in triplicates using Sephadex MicroSpin G-50 columns (GE-Healthcare, Chicago, Illinois, USA). The columns were spun initially at 20,000 rcf for 1 min to remove the storage buffer. Then approx. 5 MBq of radioligand was added to 1 mL of fresh human serum and incubated at 37 °C. At each given timepoint 25 µL of the mixture was loaded on to the column, which was then spun at 20,000 rcf for 1 min. The activity content on the column (free radioligand) and in the filtrate (protein bound fraction) was quantified in a γ-counter.

[4] = Stability in human blood serum (radio-HPLC); assay type: in vitro ADME; conditions: 37 °C
Protocol: Ligand stability in human blood serum (n = 2) and PBS (pH = 6.5) (n = 1) was determined for different time points (2 min, 30 min, 60 min, 120 min). Therefore, approx. 5 MBq of radioligand was added to 1 mL of fresh human serum at 37 °C or PBS at rt. At each given time point 100 µL of the mixture were transferred to a 1.5 mL Eppendorf tube containing 100 µL of acetonitrile. The vial was vortexed and centrifuged for 2 min at 14,000 1/min before 100 µL of the supernatant were diluted with 200 µL of water and injected into analytical radio-HPLC. The PBS solution was directly injected into the radio-HPLC. Ligand stability was determined by integrating the areas of the signals in the radio chromatogram in relation to the signal of the intact ligand.

[5] = BALB/c mice, comparison with ^99mTc-GSA
[6] = Blood, read-out: Biodistribution data, Blood
[7] = Femur, read-out: Biodistribution data, Femur
[8] = Heart, read-out: Biodistribution data, Heart
[9] = Intestine, read-out: Biodistribution data, Intestine
[10] = Kidneys, read-out: Biodistribution data, Kidneys
[11] = Liver, read-out: Biodistribution data, Liver
[12] = Lung, read-out: Biodistribution data, Lung
[13] = Muscle, read-out: Biodistribution data, Muscle
[14] = Pancreas, read-out: Biodistribution data, Pancreas
[15] = Spleen, read-out: Biodistribution data, Spleen
[16] = Stomach, read-out: Biodistribution data, Stomach

For `NC(=O)CNC(=O)CNC(=O)[C@H](CCCCNC(=O)CCCCc1cn(C2O[C@H](CO)[C@H](O)[C@H](O)[C@H]2O)nn1)NC(=O)CNC(=O)CNC(=O)[C@H](CCCCNC(=O)CCCCc1cn(C2O[C@H](CO)[C@H](O)[C@H](O)[C@H]2O)nn1)NC(=O)CNC(=O)CNC(=O)[C@H](CCCCNC(=O)CCCCc1cn(C2O[C@H](CO)[C@H](O)[C@H](O)[C@H]2O)nn1)NC(=O)CNC(=O)CNC(=O)[C@H](CCCCNC(=O)CCCCc1cn(C2O[C@H](CO)[C@H](O)[C@H](O)[C@H]2O)nn1)NC(=O)CNC(=O)CNC(=O)[C@H](CCCCNC(=O)CCCCc1cn(C2O[C@H](CO)[C@H](O)[C@H](O)[C@H]2O)nn1)NC(=O)CNC(=O)CNC(=O)[C@H](CCCCNC(=O)CCCCc1cn(C2O[C@H](CO)[C@H](O)[C@H](O)[C@H]2O)nn1)NC(=O)CNC(=O)CNC(=O)[C@H](CCCCNC(=O)CCCCc1cn(C2O[C@H](CO)[C@H](O)[C@H](O)[C@H]2O)nn1)NC(=O)CNC(=O)CNC(=O)[C@H](CCCCNC(=O)CCCCc1cn(C2O[C@H](CO)[C@H](O)[C@H](O)[C@H]2O)nn1)NC(=O)CNC(=O)CNC(=O)[C@H](CCCCNC(=O)CCCCc1cn(C2O[C@H](CO)[C@H](O)[C@H](O)[C@H]2O)nn1)NC(=O)CCCNC(=O)CC[C@H](C(=O)O)N1CCN(CC(=O)O)CCN(CC(=O)O)CC1` (some centres unmarked) [[68Ga]Ga-NonaLysan, metal not drawn], the logD [1] was -4.06 ± 0.09, the “activity accumulation in the liver (in words)” value [2, 5] was “outperforms the accumulation in the liver found for the gold standard ^99mTc-GSA” and the “activity concentration in the intestine (in words)” value [2, 5] was “activity concentration is lower as found for ^99mTc-GSA”. For the same molecule, the tissue uptake at 10 min [2, 6] was 0.43 ± 0.03 %ID/g, the tissue uptake at 0.5 h [2, 6] was 0.15 ± 0.04 %ID/g and the tissue uptake at 1 h [2, 6] was 0.22 ± 0.05 %ID/g. It also gave a tissue uptake at 10 min [2, 7] of 0.26 ± 0.02 %ID/g, a tissue uptake at 0.5 h [2, 7] of 0.26 ± 0.08 %ID/g and a tissue uptake at 1 h [2, 7] of 0.23 ± 0.01 %ID/g. For the same molecule, the tissue uptake at 10 min [2, 8] was 0.44 ± 0.04 %ID/g, the tissue uptake at 0.5 h [2, 8] was 0.44 ± 0.04 %ID/g and the tissue uptake at 1 h [2, 8] was 0.52 ± 0.07 %ID/g. For the same molecule, the tissue uptake at 10 min [2, 9] was 0.77 ± 0.17 %ID/g, the tissue uptake at 0.5 h [2, 9] was 5.61 ± 0.22 %ID/g and the tissue uptake at 1 h [2, 9] was 7.91 ± 0.49 %ID/g. For the same molecule, the tissue uptake at 10 min [2, 10] was 1.16 ± 0.12 %ID/g, the tissue uptake at 0.5 h [2, 10] was 0.83 ± 0.03 %ID/g and the tissue uptake at 1 h [2, 10] was 0.99 ± 0.15 %ID/g. It also gave a tissue uptake at 10 min [2, 11] of 71.23 ± 0.43 %ID/g, a tissue uptake at 0.5 h [2, 11] of 79.6 ± 7.96 %ID/g and a tissue uptake at 1 h [2, 11] of 69.6 ± 0.98 %ID/g. The tissue uptake at 10 min [2, 12] was 0.85 ± 0.1 %ID/g, the tissue uptake at 0.5 h [2, 12] was 0.7 ± 0.08 %ID/g and the tissue uptake at 1 h [2, 12] was 0.92 ± 0.1 %ID/g. The tissue uptake at 10 min [2, 13] was 0.61 ± 0.07 %ID/g, the tissue uptake at 0.5 h [2, 13] was 0.66 ± 0.03 %ID/g and the tissue uptake at 1 h [2, 13] was 0.59 ± 0.09 %ID/g. The tissue uptake at 10 min [2, 14] was 0.75 ± 0.07 %ID/g, the tissue uptake at 0.5 h [2, 14] was 0.91 ± 0.05 %ID/g and the tissue uptake at 1 h [2, 14] was 1.16 ± 0.19 %ID/g. It also gave a tissue uptake at 10 min [2, 15] of 0.57 ± 0.16 %ID/g, a tissue uptake at 0.5 h [2, 15] of 0.17 ± 0.03 %ID/g and a tissue uptake at 1 h [2, 15] of 0.49 ± 0.03 %ID/g. It also gave a tissue uptake at 10 min [2, 16] of 0.73 ± 0.16 %ID/g, a tissue uptake at 0.5 h [2, 16] of 1.15 ± 0.44 %ID/g and a tissue uptake at 1 h [2, 16] of 1.78 ± 0.98 %ID/g. For the same molecule, the fraction unbound ([3]; 2 min) was 0.847, the fraction unbound ([3]; 30 min) was 0.717 and the fraction unbound ([3]; 60 min) was 0.737. For the same molecule, the fraction unbound ([3]; 120 min) was 0.785, the remaining at 2 min ([4]; 2 min, n=2, read-out: Serum stability (% of intact ligand)) was 99.5 ± 0.1% and the remaining at 0.5 h ([4]; 30 min, n=2, read-out: Serum stability (% of intact ligand)) was 99.5 ± 0.1%. The “Serum stability (% of intact ligand)” value ([4]; 60 min, n=2) was 99.5 ± 0.1% and the remaining at 2 h ([4]; 120 min, n=2, read-out: Serum stability (% of intact ligand)) was 99.6%.
